Source: patent EP0403048A2, “Medicated compositions containing sucralfate and processes for their production” (WARNER-LAMBERT COMPANY, priority 1989, dated 1990)
Like-named read-outs stand apart in the source and are kept apart here.

Key:
[1] = in vitro comparative gelling experiment in 0.1N hydrochloric acid; assay type: physicochemical
[2] = system: Escherichia coli, A.T.T.C. accession number 8739; test: in-vitro antimicrobial activity, zone of inhibition on agar plates; assay type: cell-based; details: agar plate well, incubated at 37° C. for 24 hours

In the case of O=C(O)c1ccccc1 [Example 10, Benzoic Acid], the gel formation [1] is reported as “did not gel”.
In the case of Cl [Example 12, 0.1N Hydrochloric Acid], the gel formation [1] is reported as “gelled”.
In the case of Sucralfate [Example 1], the “supernatant left after gelling” value ([1]; 15ml of 0.1N hydrochloric acid) is reported as “essentially clear” and the “gelled in (time to gel)” value ([1]; composition in 15ml of 0.1N hydrochloric acid, Vortex-Genie speed 3 for 10-15 seconds) is reported as “about 10 seconds”.
With Sucralfate [Example 7] the “ZONE OF INHIBITION(CM)” value [2] was “Negative” and the gel formation ([1]; sample preparation for the antimicrobial test: 15ml of 0.1N hydrochloric acid in sterile test tube) was “gelled”.
